Laboratory results: US9758529B2, “Fused dihydro-4H-pyrazolo[5,1-C][1,4]oxazinyl compounds and analogs for treating CNS disorders” (Sunovion Pharmaceuticals Inc., priority 2015, dated 2017)
Structures can show the parent of a compound that is named as a salt.

The molecules below were run on mice (assay: Neuropharmacological Assay (SmartCube)). Conditions: i.p. 15 min before behavioral test; 3 doses, most efficacious dose(s) presented.
Type: in vivo

Structure (SMILES)	AD: ADHD (probability of class match)	AG: analgesic (probability of class match)	AX: anxiolytic (probability of class match)	CE: cognitive enhancer (probability of class match)	DP: anti-depressant (probability of class match)	HA: hallucinogen (probability of class match)	MS: mood stabilizer (probability of class match)	PS: anti-psychotic (probability of class match)	SD: sedative hypnotic (probability of class match)	UN: uncharacterized CNS activity (probability of class match)
Cl.N[C@H](CC1CCC1)C1OCCn2nc3ccccc3c21 (stereo partly drawn) [Compound 41, (1R)-2-cyclobutyl-1-(3,4-dihydro-1H-[1,4]oxazino[4,3-b]indazol-1-yl)ethan-1-aminium]	+ (LOQ≦ + <5%)	+ (LOQ≦ + <5%)	+ (LOQ≦ + <5%)	+ (LOQ≦ + <5%)	+ (LOQ≦ + <5%)	+ (LOQ≦ + <5%)	+ (LOQ≦ + <5%)	+ (LOQ≦ + <5%)	+ (LOQ≦ + <5%)	+ (LOQ≦ + <5%)
CC(C)N(C)CC1OCCn2nc3ccccc3c21.Cl (stereo not drawn) [Compound 27, N-((3,4-dihydro-1H-[1,4]oxazino[4,3-b]indazol-1-yl)methyl)-N-methylpropan-2-aminium chloride]	+ (LOQ≦ + <5%)	++ (5%≦ ++ <25%)	+ (LOQ≦ + <5%)	+ (LOQ≦ + <5%)	++++ (50%≦ ++++)	+ (LOQ≦ + <5%)	+ (LOQ≦ + <5%)	+ (LOQ≦ + <5%)	+ (LOQ≦ + <5%)	+ (LOQ≦ + <5%)
CNCC1OCCn2nc3cnccc3c21.Cl.Cl (stereo not drawn) [Compound 61, 1-((methylammonio)methyl)-3,4-dihydro-1H-pyrido[3′,4′:3,4]pyrazolo[5,1-c][1,4]oxazin-8-ium chloride]	++ (5%≦ ++ <25%)	+ (LOQ≦ + <5%)	+ (LOQ≦ + <5%)	+ (LOQ≦ + <5%)	++++ (50%≦ ++++)	++ (5%≦ ++ <25%)	+ (LOQ≦ + <5%)	+ (LOQ≦ + <5%)	+ (LOQ≦ + <5%)	++ (5%≦ ++ <25%)
CNC[C@H]1OCCn2nc3ccsc3c21 [Compound 69, (R)-1-(6,7-dihydro-9H-thieno[3′,2′:3,4]pyrazolo[5,1-c][1,4]oxazin-9-yl)-N-methylmethanamine]	+ (LOQ≦ + <5%)	+ (LOQ≦ + <5%)	++ (5%≦ ++ <25%)	+ (LOQ≦ + <5%)	++ (5%≦ ++ <25%)	+ (LOQ≦ + <5%)	+ (LOQ≦ + <5%)	+ (LOQ≦ + <5%)	+ (LOQ≦ + <5%)	++ (5%≦ ++ <25%)
Cl.c1ccc2c3n(nc2c1)CCOC31CCNC1 (stereo not drawn) [Compound 44, 3′,4′-dihydrospiro[pyrrolidine-3,1′-[1,4]oxazino[4,3-b]indazol]-1-ium chloride]	+ (LOQ≦ + <5%)	++ (5%≦ ++ <25%)	+++ (25%≦ +++ <50%)	++ (5%≦ ++ <25%)	++ (5%≦ ++ <25%)	+ (LOQ≦ + <5%)	+ (LOQ≦ + <5%)	++ (5%≦ ++ <25%)	+ (LOQ≦ + <5%)	+ (LOQ≦ + <5%)
c1ccc2c3n(nc2c1)CCOC3[C@@H]1CCCN1 (stereo partly drawn) [Compound 13, 1-((S)-pyrrolidin-2-yl)-3,4-dihydro-1H-[1,4]oxazino[4,3-b]indazole hydrochloride]	+ (LOQ≦ + <5%)	+++ (25%≦ +++ <50%)	++ (5%≦ ++ <25%)	++ (5%≦ ++ <25%)	++ (5%≦ ++ <25%)	+ (LOQ≦ + <5%)	++ (5%≦ ++ <25%)	+ (LOQ≦ + <5%)	+ (LOQ≦ + <5%)	+ (LOQ≦ + <5%)
CN(C)C[C@H]1OCCn2nc3ccccc3c21.Cl [Compound 4, (R)-(3,4-dihydro-1H-[1,4]oxazino[4,3-b]indazol-1-yl)-N,N-dimethylmethanaminium chloride]	++ (5%≦ ++ <25%)	++ (5%≦ ++ <25%)	+ (LOQ≦ + <5%)	++ (5%≦ ++ <25%)	++++ (50%≦ ++++)	++ (5%≦ ++ <25%)	+ (LOQ≦ + <5%)	+ (LOQ≦ + <5%)	+ (LOQ≦ + <5%)	++ (5%≦ ++ <25%)
CNC[C@@H]1OCCn2nc3ccsc3c21 [Compound 68, (S)-1-(6,7-dihydro-9H-thieno[3′,2′:3,4]pyrazolo[5,1-c][1,4]oxazin-9-yl)-N-methylmethanamine]	++ (5%≦ ++ <25%)	++ (5%≦ ++ <25%)	++ (5%≦ ++ <25%)	+ (LOQ≦ + <5%)	++++ (50%≦ ++++)	++++ (50%≦ ++++)	+ (LOQ≦ + <5%)	+ (LOQ≦ + <5%)	++ (5%≦ ++ <25%)	++ (5%≦ ++ <25%)
CCNCC1OCCCn2nc3ccccc3c21.Cl (stereo not drawn) [Compound 57, N-((4,5-dihydro-1H,3H-[1,4]oxazepino[4,3-b]indazol-1-yl)methyl)ethanaminium chloride]	+ (LOQ≦ + <5%)	+ (LOQ≦ + <5%)	+ (LOQ≦ + <5%)	+ (LOQ≦ + <5%)	+ (LOQ≦ + <5%)	+ (LOQ≦ + <5%)	+ (LOQ≦ + <5%)	+ (LOQ≦ + <5%)	+ (LOQ≦ + <5%)	+ (LOQ≦ + <5%)
CN1CCC2(CC1)OCCn1nc3ccccc3c12.Cl [Compound 24, 1′-methyl-3,4-dihydrospiro[[1,4]oxazino[4,3-b]indazole-1,4′-piperidin]-1′-ium chloride]	+ (LOQ≦ + <5%)	++ (5%≦ ++ <25%)	++ (5%≦ ++ <25%)	++ (5%≦ ++ <25%)	++ (5%≦ ++ <25%)	+ (LOQ≦ + <5%)	+ (LOQ≦ + <5%)	++ (5%≦ ++ <25%)	+ (LOQ≦ + <5%)	+ (LOQ≦ + <5%)
CCN(C)CC1OCCn2nc3ccccc3c21.Cl (stereo not drawn) [Compound 28, N-((3,4-dihydro-1H-[1,4]oxazino[4,3-b]indazol-1-yl)methyl)-N-methylethanaminium chloride]	+ (LOQ≦ + <5%)	+ (LOQ≦ + <5%)	++ (5%≦ ++ <25%)	++ (5%≦ ++ <25%)	++++ (50%≦ ++++)	++ (5%≦ ++ <25%)	+ (LOQ≦ + <5%)	+ (LOQ≦ + <5%)	+ (LOQ≦ + <5%)	++ (5%≦ ++ <25%)
Cl.c1ccc2c3n(nc2c1)CCOC3[C@@H]1COCCN1 (stereo partly drawn) [Compound 43, (3S)-3-(3,4-dihydro-1H-[1,4]oxazino[4,3-b]indazol-1-yl)morpholin-4-ium chloride]	+ (LOQ≦ + <5%)	+ (LOQ≦ + <5%)	+ (LOQ≦ + <5%)	+ (LOQ≦ + <5%)	+ (LOQ≦ + <5%)	+ (LOQ≦ + <5%)	+ (LOQ≦ + <5%)	+ (LOQ≦ + <5%)	+ (LOQ≦ + <5%)	+ (LOQ≦ + <5%)

Same assay, conditions: i.p. 15 min before behavioral test; 3 doses, most efficacious dose(s) presented

Structure (SMILES)	XG: anxiogenic (probability of class match)
Cl.N[C@H](CC1CCC1)C1OCCn2nc3ccccc3c21 (stereo partly drawn) [Compound 41, (1R)-2-cyclobutyl-1-(3,4-dihydro-1H-[1,4]oxazino[4,3-b]indazol-1-yl)ethan-1-aminium]	+ (LOQ≦ + <5%)
CC(C)N(C)CC1OCCn2nc3ccccc3c21.Cl (stereo not drawn) [Compound 27, N-((3,4-dihydro-1H-[1,4]oxazino[4,3-b]indazol-1-yl)methyl)-N-methylpropan-2-aminium chloride]	+ (LOQ≦ + <5%)
CNCC1OCCn2nc3cnccc3c21.Cl.Cl (stereo not drawn) [Compound 61, 1-((methylammonio)methyl)-3,4-dihydro-1H-pyrido[3′,4′:3,4]pyrazolo[5,1-c][1,4]oxazin-8-ium chloride]	+ (LOQ≦ + <5%)
CNC[C@H]1OCCn2nc3ccsc3c21 [Compound 69, (R)-1-(6,7-dihydro-9H-thieno[3′,2′:3,4]pyrazolo[5,1-c][1,4]oxazin-9-yl)-N-methylmethanamine]	+ (LOQ≦ + <5%)
Cl.c1ccc2c3n(nc2c1)CCOC31CCNC1 (stereo not drawn) [Compound 44, 3′,4′-dihydrospiro[pyrrolidine-3,1′-[1,4]oxazino[4,3-b]indazol]-1-ium chloride]	+ (LOQ≦ + <5%)
c1ccc2c3n(nc2c1)CCOC3[C@@H]1CCCN1 (stereo partly drawn) [Compound 13, 1-((S)-pyrrolidin-2-yl)-3,4-dihydro-1H-[1,4]oxazino[4,3-b]indazole hydrochloride]	+ (LOQ≦ + <5%)
CN(C)C[C@H]1OCCn2nc3ccccc3c21.Cl [Compound 4, (R)-(3,4-dihydro-1H-[1,4]oxazino[4,3-b]indazol-1-yl)-N,N-dimethylmethanaminium chloride]	+ (LOQ≦ + <5%)
CNC[C@@H]1OCCn2nc3ccsc3c21 [Compound 68, (S)-1-(6,7-dihydro-9H-thieno[3′,2′:3,4]pyrazolo[5,1-c][1,4]oxazin-9-yl)-N-methylmethanamine]	+ (LOQ≦ + <5%)
CCNCC1OCCCn2nc3ccccc3c21.Cl (stereo not drawn) [Compound 57, N-((4,5-dihydro-1H,3H-[1,4]oxazepino[4,3-b]indazol-1-yl)methyl)ethanaminium chloride]	+ (LOQ≦ + <5%)
CN1CCC2(CC1)OCCn1nc3ccccc3c12.Cl [Compound 24, 1′-methyl-3,4-dihydrospiro[[1,4]oxazino[4,3-b]indazole-1,4′-piperidin]-1′-ium chloride]	+ (LOQ≦ + <5%)
CCN(C)CC1OCCn2nc3ccccc3c21.Cl (stereo not drawn) [Compound 28, N-((3,4-dihydro-1H-[1,4]oxazino[4,3-b]indazol-1-yl)methyl)-N-methylethanaminium chloride]	+ (LOQ≦ + <5%)
Cl.c1ccc2c3n(nc2c1)CCOC3[C@@H]1COCCN1 (stereo partly drawn) [Compound 43, (3S)-3-(3,4-dihydro-1H-[1,4]oxazino[4,3-b]indazol-1-yl)morpholin-4-ium chloride]	+ (LOQ≦ + <5%)
